Assays:
Assay type in all cases: in vivo
Glycine max (GLXMA) [1] = experiment: Pre-emergence herbicidal evaluation, soyabeans
Method in brief: (§1)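 Pre-emergence; seed/potting-soil mix sown on ~1 inch soil; spray aqueous acetone solution, ~0.0125–0.4 kg/ha equivalent; greenhouse, watered; visual rating at 2–4 wk.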

Oryza sativum (ORYSA) = experiment: Pre-emergence herbicidal evaluation, rice
Method in brief: as §1

[2] = test system: Triticum aestivum (TRZAW); experiment: Pre-emergence herbicidal evaluation, winter wheat
Method in brief: as §1

Zea mays (ZEAMX) [3] = experiment: Pre-emergence herbicidal evaluation, maize
Method in brief: as §1

[4] = test system: Abutilon theophrasti (ABUTH); experiment: Pre-emergence herbicidal evaluation, velvetleaf
Method in brief: as §1

[5] = test system: Ambrosia artemiisifolia (AMBEL); experiment: Pre-emergence herbicidal evaluation, ragweed
Method in brief: as §1

Galium aparine (GALAP) = experiment: Pre-emergence herbicidal evaluation, cleaver
Method in brief: as §1

Lamium purpureum (LAMPU) [6] = experiment: Pre-emergence herbicidal evaluation, purple deadnettle
Method in brief: as §1

Stellaria media (STEME) [7] = experiment: Pre-emergence herbicidal evaluation, chickweed
Method in brief: as §1

[8] = test system: Alopecurus myosuroides (ALOMY); experiment: Pre-emergence herbicidal evaluation, black grass
Method in brief: as §1

[9] = test system: Echinochloa grus galli (ECHCG); experiment: Pre-emergence herbicidal evaluation, barnyard grass
Method in brief: as §1

Setaria viridis (SETVI) [10] = experiment: Pre-emergence herbicidal evaluation, green foxtail
Method in brief: as §1

Glycine max (GLXMA) [11] = experiment: Post-emergence herbicidal evaluation, soyabeans; details: rated 2 to 4 weeks after treatment
Method in brief: (§2)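 Injury was scored visually from 0 to 9, with 0 matching untreated plants and 9 denoting death, between 2 and 4 weeks after foliar application of aqueous dilutions of acetone solutions at roughly 0.03–0.4 kg/ha per pot.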

Hordeum vulgare (HORVW) = experiment: Post-emergence herbicidal evaluation, winter barley; details: rated 2 to 4 weeks after treatment
Method in brief: as §2

[12] = test system: Triticum aestivum (TRZAW); experiment: Post-emergence herbicidal evaluation, winter wheat; details: rated 2 to 4 weeks after treatment
Method in brief: as §2

Zea mays (ZEAMX) [13] = experiment: Post-emergence herbicidal evaluation, maize; details: rated 2 to 4 weeks after treatment
Method in brief: as §2

[14] = test system: Ambrosia artemiisifolia (AMBEL); experiment: Post-emergence herbicidal evaluation, ragweed; details: rated 2 to 4 weeks after treatment
Method in brief: as §2

[15] = test system: Ipomoea hederacea (IPOHE); experiment: Post-emergence herbicidal evaluation, morning glory; details: rated 2 to 4 weeks after treatment
Method in brief: as §2

Lamium purpureum (LAMPU) [16] = experiment: Post-emergence herbicidal evaluation, purple deadnettle; details: rated 2 to 4 weeks after treatment
Method in brief: as §2

[17] = test system: Matricaria inodora (MATIN); experiment: Post-emergence herbicidal evaluation, mayweed; details: rated 2 to 4 weeks after treatment
Method in brief: as §2

Solanum nigrum (SOLNI) = experiment: Post-emergence herbicidal evaluation, black nightshade; details: rated 2 to 4 weeks after treatment
Method in brief: as §2

Stellaria media (STEME) [18] = experiment: Post-emergence herbicidal evaluation, chickweed; details: rated 2 to 4 weeks after treatment
Method in brief: as §2

[19] = test system: Alopecurus myosuroides (ALOMY); experiment: Post-emergence herbicidal evaluation, black grass; details: rated 2 to 4 weeks after treatment
Method in brief: as §2

[20] = test system: Digitaria sanguinalis (DIGSA); experiment: Post-emergence herbicidal evaluation, large crabgrass; details: rated 2 to 4 weeks after treatment
Method in brief: as §2

[21] = test system: Echinochloa grus galli (ECHCG); experiment: Post-emergence herbicidal evaluation, barnyard grass; details: rated 2 to 4 weeks after treatment
Method in brief: as §2

Setaria viridis (SETVI) [22] = experiment: Post-emergence herbicidal evaluation, green foxtail; details: rated 2 to 4 weeks after treatment
Method in brief: as §2

Cc1cc(OCC=C(Cl)Cl)nc(Oc2cc(C(F)(F)F)nn2C)c1 [Example 12]
9 (9 - Complete kill): ABUTH rating ([4]; dose 0.4 kg/ha) | AMBEL rating ([5]; dose 0.1 kg/ha) | AMBEL rating ([5]; dose 0.4 kg/ha) | GALAP rating (Galium aparine (GALAP); dose 0.4 kg/ha) | LAMPU rating (Lamium purpureum (LAMPU) [6]; dose 0.025 kg/ha) | LAMPU rating (Lamium purpureum (LAMPU) [6]; dose 0.1 kg/ha) | LAMPU rating (Lamium purpureum (LAMPU) [6]; dose 0.4 kg/ha) | STEME rating (Stellaria media (STEME) [7]; dose 0.1 kg/ha) | STEME rating (Stellaria media (STEME) [7]; dose 0.4 kg/ha) | ALOMY rating ([8]; dose 0.1 kg/ha) | ALOMY rating ([8]; dose 0.4 kg/ha) | ECHCG rating ([9]; dose 0.4 kg/ha) | SETVI rating (Setaria viridis (SETVI) [10]; dose 0.025 kg/ha) | SETVI rating (Setaria viridis (SETVI) [10]; dose 0.1 kg/ha) | SETVI rating (Setaria viridis (SETVI) [10]; dose 0.4 kg/ha) | IPOHE rating ([15]; dose 0.03 kg/ha) | IPOHE rating ([15]; dose 0.1 kg/ha) | IPOHE rating ([15]; dose 0.4 kg/ha) | ALOMY rating ([19]; dose 0.1 kg/ha) | ALOMY rating ([19]; dose 0.4 kg/ha) | DIGSA rating ([20]; dose 0.1 kg/ha) | DIGSA rating ([20]; dose 0.4 kg/ha) | ECHCG rating ([21]; dose 0.03 kg/ha) | ECHCG rating ([21]; dose 0.1 kg/ha) | ECHCG rating ([21]; dose 0.4 kg/ha) | SETVI rating (Setaria viridis (SETVI) [22]; dose 0.03 kg/ha) | SETVI rating (Setaria viridis (SETVI) [22]; dose 0.1 kg/ha) | SETVI rating (Setaria viridis (SETVI) [22]; dose 0.4 kg/ha)
1 (1 - Trace effect): GLXMA rating (Glycine max (GLXMA) [1]; dose 0.013 kg/ha) | ORYSA rating (Oryza sativum (ORYSA); dose 0.1 kg/ha) | TRZAW rating ([2]; dose 0.013 kg/ha) | GALAP rating (Galium aparine (GALAP); dose 0.013 kg/ha)
6 (6 - Herbicidal effect): TRZAW rating ([2]; dose 0.4 kg/ha) | STEME rating (Stellaria media (STEME) [7]; dose 0.013 kg/ha) | HORVW rating (Hordeum vulgare (HORVW); dose 0.4 kg/ha) | ZEAMX rating (Zea mays (ZEAMX) [13]; dose 0.4 kg/ha) | AMBEL rating ([14]; dose 0.1 kg/ha)
5 (5 - Definite injury): ZEAMX rating (Zea mays (ZEAMX) [3]; dose 0.4 kg/ha) | ECHCG rating ([9]; dose 0.025 kg/ha) | SETVI rating (Setaria viridis (SETVI) [10]; dose 0.013 kg/ha) | GLXMA rating (Glycine max (GLXMA) [11]; dose 0.03 kg/ha) | HORVW rating (Hordeum vulgare (HORVW); dose 0.1 kg/ha) | TRZAW rating ([12]; dose 0.4 kg/ha) | AMBEL rating ([14]; dose 0.03 kg/ha)
4 (4 - Injury): GLXMA rating (Glycine max (GLXMA) [1]; dose 0.4 kg/ha) | GALAP rating (Galium aparine (GALAP); dose 0.025 kg/ha) | ZEAMX rating (Zea mays (ZEAMX) [13]; dose 0.1 kg/ha)
2 (2 - Slight effect): GLXMA rating (Glycine max (GLXMA) [1]; dose 0.025 kg/ha) | TRZAW rating ([2]; dose 0.025 kg/ha) | ZEAMX rating (Zea mays (ZEAMX) [3]; dose 0.025 kg/ha) | ABUTH rating ([4]; dose 0.013 kg/ha) | ZEAMX rating (Zea mays (ZEAMX) [13]; dose 0.03 kg/ha)
7 (7 - Good herbicidal effect): ABUTH rating ([4]; dose 0.025 kg/ha) | AMBEL rating ([14]; dose 0.4 kg/ha)
0 (0 - No effect): ORYSA rating (Oryza sativum (ORYSA); dose 0.013 kg/ha) | ORYSA rating (Oryza sativum (ORYSA); dose 0.025 kg/ha) | ZEAMX rating (Zea mays (ZEAMX) [3]; dose 0.013 kg/ha)
8 (8 - Approaching complete kill): ABUTH rating ([4]; dose 0.1 kg/ha) | AMBEL rating ([5]; dose 0.013 kg/ha) | AMBEL rating ([5]; dose 0.025 kg/ha) | GALAP rating (Galium aparine (GALAP); dose 0.1 kg/ha) | LAMPU rating (Lamium purpureum (LAMPU) [6]; dose 0.013 kg/ha) | STEME rating (Stellaria media (STEME) [7]; dose 0.025 kg/ha) | ALOMY rating ([8]; dose 0.025 kg/ha) | ECHCG rating ([9]; dose 0.1 kg/ha) | GLXMA rating (Glycine max (GLXMA) [11]; dose 0.1 kg/ha) | GLXMA rating (Glycine max (GLXMA) [11]; dose 0.4 kg/ha) | LAMPU rating (Lamium purpureum (LAMPU) [16]; dose 0.03 kg/ha) | LAMPU rating (Lamium purpureum (LAMPU) [16]; dose 0.1 kg/ha) | LAMPU rating (Lamium purpureum (LAMPU) [16]; dose 0.4 kg/ha) | MATIN rating ([17]; dose 0.03 kg/ha) | MATIN rating ([17]; dose 0.1 kg/ha) | MATIN rating ([17]; dose 0.4 kg/ha) | SOLNI rating (Solanum nigrum (SOLNI); dose 0.03 kg/ha) | SOLNI rating (Solanum nigrum (SOLNI); dose 0.1 kg/ha) | SOLNI rating (Solanum nigrum (SOLNI); dose 0.4 kg/ha) | STEME rating (Stellaria media (STEME) [18]; dose 0.03 kg/ha) | STEME rating (Stellaria media (STEME) [18]; dose 0.1 kg/ha) | STEME rating (Stellaria media (STEME) [18]; dose 0.4 kg/ha) | ALOMY rating ([19]; dose 0.03 kg/ha) | DIGSA rating ([20]; dose 0.03 kg/ha)
3 (3 - Moderate effect): GLXMA rating (Glycine max (GLXMA) [1]; dose 0.1 kg/ha) | ORYSA rating (Oryza sativum (ORYSA); dose 0.4 kg/ha) | TRZAW rating ([2]; dose 0.1 kg/ha) | ZEAMX rating (Zea mays (ZEAMX) [3]; dose 0.1 kg/ha) | ALOMY rating ([8]; dose 0.013 kg/ha) | ECHCG rating ([9]; dose 0.013 kg/ha) | HORVW rating (Hordeum vulgare (HORVW); dose 0.03 kg/ha) | TRZAW rating ([12]; dose 0.03 kg/ha) | TRZAW rating ([12]; dose 0.1 kg/ha)

Source: patent US6852673B2, “Herbicidal pyridine compounds” (BASF Aktiengesellschaft, priority 1998, dated 2005)
